Data: patent US6660501B2, “Production of proteins by cell culture” (Lonza Group, AG, priority 1986, dated 2003)

Tests used:
Assay type in all cases: cell-based
[1] = tested on: CBMG human growth hormone producing cells; experiment: Production of recombinant human growth hormone by CBMG cells (immunoradiometric assay); settings: serum-free maintenance medium, control 1.0
Experimental: The molecular biology of adherent CBMG human growth hormone producing cells has been described (G. N. Pavlakis et al PNAS (USA) Vol. 80 pp 397-401 (1983)).
CBMG cells were inoculated into tissue culture flasks at a density of 0.7×10^5 cells/cm^2 in Dulbeccos Modified Eagles Minimum (DMEM) supplemented with 10% foetal calf serum.
After the cells in culture had grown to confluency, the DMEM serum supplemented medium was replaced by serum-free DMEM maintenance medium. Sodium butyrate was added at 1 mM and 5 mM after transferring the cells from serum supplemented medium to maintenance medium. Levels of human growth hormone in the culture supernatant were measured after 48 hours by immunoradiometric assay.

hybridoma cell line A = experiment: Harvest antibody titre, hybridoma cell line A; settings: SFM, control 28
Experimental: (§1) Hybridoma cells were grown in suspension culture in either serum-free medium (see Example 1) or in DMEM supplemented with 10% (v/v), heat inactivated foetal calf serum. Cells were cultured in either roller bottles or in shake-flasks, as in Example 1. Sodium butyrate was added to cultures immediately after inoculation.

hybridoma cell line B = experiment: Harvest antibody titre, hybridoma cell line B; settings: SFM + 10% FCS, control 173
Experimental: as §1

hybridoma cell line D = experiment: Harvest antibody titre, hybridoma cell line D; settings: SFM + 10% FCS, control 29
Experimental: as §1

hybridoma cell line E = experiment: Harvest antibody titre, hybridoma cell line E; settings: SFM, control 46
Experimental: as §1

hybridoma cell line F = experiment: Harvest antibody titre, hybridoma cell line F; settings: SFM + 5% FCS, 0.50 mM butyrate, control 90
Experimental: (§2) […] Cells were cultured in either roller bottles or in shake-flasks, as in Example 1. Sodium butyrate was added to cultures immediately after inoculation.

hybridoma cell line H = experiment: Harvest antibody titre, hybridoma cell line H; settings: SFM, 0.50 mM butyrate, control 62
Experimental: as §1

hybridoma cell line I = experiment: Harvest antibody titre, hybridoma cell line I; settings: DMEM + 5% FCS, control 113
Experimental: as §2

hybridoma cell line J = experiment: Harvest antibody titre, hybridoma cell line J
Experimental: as §1

hybridoma cell line K = experiment: Harvest antibody titre, hybridoma cell line K; settings: SFM + 1% FCS, 0.50 mM butyrate, control 15
Experimental: as §1

hybridoma cell line L = experiment: Harvest antibody titre, hybridoma cell line L; settings: SFM, control 34
Experimental: as §1

Hybridoma cells = experiment: Effect of sodium butyrate on a variety of hybridoma cell lines (summary statement); settings: butyrate added immediately after inoculation
Experimental: as §1

[2] = tested on: mouse C127 cell line producing recombinant tissue plasminogen activator (tPA); experiment: Production of recombinant tPA from C127 cell line on microcarriers (fibrin-agar method; nuclei count); settings: for CONCENTRATION OF TPA PER ML: control 100
Experimental: A mouse C127 cell line producing recombinant tissue plasminogen activator (tPA) was cultured on microcarriers (gelibeads, K. C. Biologicals) in spinner vessels (Bellco). The growth medium was DMEM supplemented with 10% foetal calf serum. The concentration of microcarriers were 5 grams (dryweight) per liter of medium. Calls were inoculated at a density of 1×10^5 cells per ml.
After the cells had grown to confluency on the surface of the microcarriers, growth medium was aspirated and replaced with a protein-free DMEM-based maintenance medium containing the butyrate. Control cultures received no butyrate.
Cell density was determined by counting nuclei which were released from cells by hypotonic lysis (ref. Absher, in “Tissue Culture Methods and Applications”, Kruse & Patterson. Academic Press 1973). The concentration of tPA in the supernatant was assayed using the fibrin-agar method.

CCCC(=O)[O-].[Na+] [sodium butyrate]
Concentration of hGH in supernatant ([1]; 1 mM sodium butyrate): 1.1 arbitrary units/48 hours | Concentration of hGH in supernatant ([1]; 5 mM sodium butyrate): 2.3 arbitrary units/48 hours | HARVEST ANTIBODY TITER (hybridoma cell line A; 0.35 mM butyrate): 35 mg/L | HARVEST ANTIBODY TITER (hybridoma cell line A; 0.50 mM butyrate): 36 mg/L | HARVEST ANTIBODY TITER (hybridoma cell line B; 0.35 mM butyrate): 232 mg/L | HARVEST ANTIBODY TITER (hybridoma cell line B; 0.50 mM butyrate): 240 mg/L | HARVEST ANTIBODY TITER (hybridoma cell line D; 0.35 mM butyrate): 39 mg/L | HARVEST ANTIBODY TITER (hybridoma cell line D; 0.50 mM butyrate): 50 mg/L | HARVEST ANTIBODY TITER (hybridoma cell line E; 0.35 mM butyrate): 56 mg/L | HARVEST ANTIBODY TITER (hybridoma cell line E; 0.50 mM butyrate): 86 mg/L | HARVEST ANTIBODY TITER (hybridoma cell line F): 132 mg/L | HARVEST ANTIBODY TITER (hybridoma cell line H): 109 mg/L | HARVEST ANTIBODY TITER (hybridoma cell line I; 0.35 mM butyrate): 135 mg/L | HARVEST ANTIBODY TITER (hybridoma cell line I; 0.50 mM butyrate): 154 mg/L | HARVEST ANTIBODY TITER (hybridoma cell line J; DMEM + 10% FCS, 0.50 mM butyrate, control 32): 54 mg/L | HARVEST ANTIBODY TITER (hybridoma cell line J; DMEM + 10% FCS, 0.75 mM butyrate, control 32): 55 mg/L | HARVEST ANTIBODY TITER (hybridoma cell line J; SFM, 0.50 mM butyrate, control 37): 72 mg/L | HARVEST ANTIBODY TITER (hybridoma cell line J; SFM, 1.00 mM butyrate, control 37): 102 mg/L | HARVEST ANTIBODY TITER (hybridoma cell line K): 26 mg/L | HARVEST ANTIBODY TITER (hybridoma cell line L; 0.25 mM butyrate): 50 mg/L | HARVEST ANTIBODY TITER (hybridoma cell line L; 0.50 mM butyrate): 58 mg/L | amount of antibody produced per cell (Hybridoma cells): increased the amount of antibody produced per cell | CELL DENSITY ([2]; 0.5 mM butyrate, maintenance period 46 hours, control 10.8): 11.1 x10^5 cells/ml | CONCENTRATION OF TPA PER ML ([2]; 0.5 mM butyrate, maintenance period 46 hours): 159 arbitrary units | CELL DENSITY ([2]; 0.5 mM butyrate, maintenance period 92 hours, control 13.7): 10.3 x10^5 cells/ml | CONCENTRATION OF TPA PER ML ([2]; 0.5 mM butyrate, maintenance period 92 hours): 143 arbitrary units | CELL DENSITY ([2]; 0.5 mM butyrate, maintenance period 140 hours, control 19.1): 12.3 x10^5 cells/ml | CONCENTRATION OF TPA PER ML ([2]; 0.5 mM butyrate, maintenance period 140 hours): 186 arbitrary units | CELL DENSITY ([2]; 1.0 mM butyrate, maintenance period 46 hours, control 10.8): 11.5 x10^5 cells/ml | CONCENTRATION OF TPA PER ML ([2]; 1.0 mM butyrate, maintenance period 46 hours): 191 arbitrary units | CELL DENSITY ([2]; 1.0 mM butyrate, maintenance period 92 hours, control 13.7): 9.2 x10^5 cells/ml | CONCENTRATION OF TPA PER ML ([2]; 1.0 mM butyrate, maintenance period 92 hours): 157 arbitrary units | CELL DENSITY ([2]; 1.0 mM butyrate, maintenance period 140 hours, control 19.1): 9.4 x10^5 cells/ml | CONCENTRATION OF TPA PER ML ([2]; 1.0 mM butyrate, maintenance period 140 hours): 236 arbitrary units | CELL DENSITY ([2]; 2.5 mM butyrate, maintenance period 46 hours, control 10.8): 9.6 x10^5 cells/ml | CONCENTRATION OF TPA PER ML ([2]; 2.5 mM butyrate, maintenance period 46 hours): 945 arbitrary units | CELL DENSITY ([2]; 2.5 mM butyrate, maintenance period 92 hours, control 13.7): 7.6 x10^5 cells/ml | CONCENTRATION OF TPA PER ML ([2]; 2.5 mM butyrate, maintenance period 92 hours): 1782 arbitrary units | CELL DENSITY ([2]; 2.5 mM butyrate, maintenance period 140 hours, control 19.1): 6.6 x10^5 cells/ml | CONCENTRATION OF TPA PER ML ([2]; 2.5 mM butyrate, maintenance period 140 hours): 3468 arbitrary units
